Source: patent publication US9266939B2, “Compositions comprising natriuretic peptides and methods of use thereof” (Alexion Pharmaceuticals, Inc., priority 2010, dated 2016)
Values joined by “and” are separate entries in the source; they are usually repeats but may differ in a detail not shown here. Equal entries are not always repeated. Bridge positions count the residues as written; N and C are the ends. Ends that are not written are not given here. Peptide text beside a SMILES is read from it.

Columns and labels:
NPR-B [1] = molecular target: T1, NPR-B (Homo sapiens, UniProt P20594); test: Membrane guanylyl cyclase (cGMP) assay, NPR-B; format: biochemical
T1 sequence (P20594 23-1047): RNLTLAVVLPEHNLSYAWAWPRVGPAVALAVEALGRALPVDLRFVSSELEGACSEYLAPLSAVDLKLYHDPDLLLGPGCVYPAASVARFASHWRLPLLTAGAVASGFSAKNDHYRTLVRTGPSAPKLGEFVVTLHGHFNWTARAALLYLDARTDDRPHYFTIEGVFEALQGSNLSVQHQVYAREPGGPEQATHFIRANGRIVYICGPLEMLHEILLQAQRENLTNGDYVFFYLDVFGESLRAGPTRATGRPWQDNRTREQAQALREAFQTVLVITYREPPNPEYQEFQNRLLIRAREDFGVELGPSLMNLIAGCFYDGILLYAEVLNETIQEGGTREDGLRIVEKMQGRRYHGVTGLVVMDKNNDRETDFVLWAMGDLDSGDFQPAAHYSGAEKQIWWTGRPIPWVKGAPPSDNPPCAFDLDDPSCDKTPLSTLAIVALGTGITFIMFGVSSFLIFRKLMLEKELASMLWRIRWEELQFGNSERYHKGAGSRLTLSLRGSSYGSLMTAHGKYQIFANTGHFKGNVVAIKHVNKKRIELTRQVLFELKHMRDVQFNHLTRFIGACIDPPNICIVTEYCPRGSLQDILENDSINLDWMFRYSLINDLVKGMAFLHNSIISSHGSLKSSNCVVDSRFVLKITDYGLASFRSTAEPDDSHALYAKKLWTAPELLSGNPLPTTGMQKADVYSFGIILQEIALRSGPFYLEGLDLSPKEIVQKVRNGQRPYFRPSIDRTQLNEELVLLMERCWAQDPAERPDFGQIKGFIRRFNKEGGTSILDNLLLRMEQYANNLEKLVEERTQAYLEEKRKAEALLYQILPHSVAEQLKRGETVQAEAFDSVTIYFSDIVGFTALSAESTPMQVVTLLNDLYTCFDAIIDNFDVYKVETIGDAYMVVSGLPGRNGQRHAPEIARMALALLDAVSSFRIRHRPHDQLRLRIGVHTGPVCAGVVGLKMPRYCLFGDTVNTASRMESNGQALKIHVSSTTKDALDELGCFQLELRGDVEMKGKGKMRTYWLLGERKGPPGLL

NPR-A = NPR-A (Homo sapiens, UniProt P16066); format: biochemical
[2] = molecular target: T2, neutral endopeptidase (NEP) (Homo sapiens, UniProt P08473)
[3] = molecular target: T2, neutral endopeptidase (NEP); test: in vitro; settings: isolated enzyme neprilysin, pH 7.5
NPR-B [4] = molecular target: T1, NPR-B; test: Whole cell guanylyl cyclase (cGMP) assay, NPR-B; format: cell-based; parameters: expressed in transfected cells
Protocol: HEK293S cells in a semi-confluent 75 cm2 flask are transfected with 30 μg of plasmid DNA coding for the appropriate receptor, e.g., human NPR-B or NPR-A, using Lipofectamine-2000CD. Alternatively, a stable polyclonal HEK293 S cell line expressing either human NPR-B or NPR-A was used. 24 hours after transfection, cells are trypsinized and plated into 48-well plates at 1×10^5 cells/well. Guanylyl cyclase assay is carried out 24 hours post-plating. Cells are first incubated for 30 minutes at 37° C. with serum-free DMEM medium. Then, they are incubated in triplicate with or without increasing concentrations of reference or test proteins in serum-free DMEM supplemented with 1 mM IBMX and 0.5% BSA, at 37° C. for 30 minutes to one hour. CNP serves as a suitable reference for NPR-B, while ANP is a suitable reference for NPR-A. Finally, cells are washed with ice-cold PBS and solubilized in lysis buffer from Catchpoint cGMP kit (Molecular devices). Concentrations of cGMP in lysate are determined using the Catchpoint cGMP kit. Dose-response curves are analysed with GraphPad Prism 5 software using non-linear regression with four-parameter logistic equation.

T2 sequence (P08473 whole entry): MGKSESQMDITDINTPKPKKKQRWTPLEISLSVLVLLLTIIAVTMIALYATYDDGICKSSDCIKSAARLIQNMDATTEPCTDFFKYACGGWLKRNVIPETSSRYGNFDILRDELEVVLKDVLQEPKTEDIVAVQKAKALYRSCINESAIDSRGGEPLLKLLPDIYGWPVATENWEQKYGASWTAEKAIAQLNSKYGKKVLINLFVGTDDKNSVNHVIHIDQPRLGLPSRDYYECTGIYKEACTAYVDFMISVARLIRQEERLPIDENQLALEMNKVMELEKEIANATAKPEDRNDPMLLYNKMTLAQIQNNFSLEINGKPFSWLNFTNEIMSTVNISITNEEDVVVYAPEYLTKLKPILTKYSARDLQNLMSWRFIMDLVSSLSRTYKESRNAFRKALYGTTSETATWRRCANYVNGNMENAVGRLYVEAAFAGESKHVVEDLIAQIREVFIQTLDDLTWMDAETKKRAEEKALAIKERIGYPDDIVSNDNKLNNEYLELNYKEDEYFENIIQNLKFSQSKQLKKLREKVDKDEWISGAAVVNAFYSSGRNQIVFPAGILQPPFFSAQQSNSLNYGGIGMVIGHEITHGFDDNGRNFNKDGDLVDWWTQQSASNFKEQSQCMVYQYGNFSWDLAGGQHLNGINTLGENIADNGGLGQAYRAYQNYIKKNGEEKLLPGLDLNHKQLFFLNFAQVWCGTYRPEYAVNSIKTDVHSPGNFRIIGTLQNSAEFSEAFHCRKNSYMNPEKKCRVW
NPR-A, sequence (P16066 33-1061): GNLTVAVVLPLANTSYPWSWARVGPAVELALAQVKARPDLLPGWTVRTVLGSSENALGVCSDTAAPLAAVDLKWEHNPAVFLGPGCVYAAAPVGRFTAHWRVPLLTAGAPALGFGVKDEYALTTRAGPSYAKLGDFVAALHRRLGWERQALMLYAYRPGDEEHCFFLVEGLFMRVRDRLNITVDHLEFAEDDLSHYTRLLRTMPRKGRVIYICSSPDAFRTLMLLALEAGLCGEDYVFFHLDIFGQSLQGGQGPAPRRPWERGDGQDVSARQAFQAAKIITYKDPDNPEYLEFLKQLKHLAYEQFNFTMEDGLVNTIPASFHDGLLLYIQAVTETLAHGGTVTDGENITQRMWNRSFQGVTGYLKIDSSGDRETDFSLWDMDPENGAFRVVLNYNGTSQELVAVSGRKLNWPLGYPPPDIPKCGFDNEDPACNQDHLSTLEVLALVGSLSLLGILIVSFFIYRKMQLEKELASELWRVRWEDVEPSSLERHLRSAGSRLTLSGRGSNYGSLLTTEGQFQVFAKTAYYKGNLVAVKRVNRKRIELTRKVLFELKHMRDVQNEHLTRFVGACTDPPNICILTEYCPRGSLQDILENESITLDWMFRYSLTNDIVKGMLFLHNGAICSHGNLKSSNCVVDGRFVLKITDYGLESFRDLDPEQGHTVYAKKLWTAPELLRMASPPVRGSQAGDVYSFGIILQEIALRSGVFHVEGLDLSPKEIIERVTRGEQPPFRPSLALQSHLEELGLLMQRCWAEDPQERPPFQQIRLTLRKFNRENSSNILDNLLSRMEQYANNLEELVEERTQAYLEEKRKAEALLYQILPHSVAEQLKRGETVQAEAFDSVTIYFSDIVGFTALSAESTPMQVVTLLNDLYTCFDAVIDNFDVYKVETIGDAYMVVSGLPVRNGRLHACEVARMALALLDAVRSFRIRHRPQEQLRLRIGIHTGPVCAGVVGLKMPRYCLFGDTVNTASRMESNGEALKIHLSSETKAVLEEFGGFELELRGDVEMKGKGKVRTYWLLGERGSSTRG

Compound	Approximate fold gain in selectivity versus CDNP (NPR-B [1])	Approximate fold selectivity NPR-B versus NPR-A (NPR-B [1]) [fold]	NPR-B selective efficacy gain (NPR-B [1]) [%]	% efficacy versus CDNP on NPR-A (NPR-A)	% loss in efficacy versus CDNP (NPR-A) [%]	sensitivity to NEP degradation [2]	% of control after 240 min [2] [%]	Resist NEP degradation (No/Yes) [2]	remaining at 4 h [3] [%]	EC50 Ratio versus CNP22 (NPR-B [4])	Rescue Ratio Average (NPR-B [4])	Rescue Ratio versus CNP22 (NPR-B [4])	Rescue range (NPR-B [4]) [nM]	EC50 (NPR-B [4]; EC50) [nM]	Emax (NPR-B [4]; read-out: % Efficacy) [%]
CC[C@H](C)[C@@H]1NC(=O)[C@H](CCCNC(=N)N)NC(=O)[C@H](CC(=O)O)NC(=O)[C@H](CC(C)C)NC(=O)[C@H](CCCCN)NC(=O)[C@H](CC(C)C)NC(=O)CNC(=O)[C@H](Cc2ccccc2)NC(=O)[C@@H](NC(=O)CNC(=O)[C@H](CCCCN)NC(=O)[C@H](CO)NC(=O)[C@H](CC(C)C)NC(=O)CN)CSSC[C@@H](C(=O)N2CCC[C@H]2C(=O)N[C@@H](CO)C(=O)N[C@@H](CO)C(=O)N[C@@H](C)C(=O)N[C@@H](C)C(=O)N2CCC[C@H]2C(=O)N[C@@H](CCCNC(=N)N)C(=O)N2CCC[C@H]2C(=O)N[C@@H](CC(N)=O)C(=O)N[C@@H](C)C(=O)N2CCC[C@H]2C(=O)N[C@@H](CO)C(=O)N[C@H](C(=O)N[C@@H](CO)C(=O)N[C@@H](C)C(=O)O)[C@@H](C)O)NC(=O)CNC(=O)[C@H](CC(C)C)NC(=O)CNC(=O)[C@H](CO)NC(=O)[C@H](CCSC)NC(=O)[C@H](CO)NC(=O)CNC1=O [CDNP-SAA] (HELM PEPTIDE1{G.L.S.K.G.C.F.G.L.K.L.D.R.I.G.S.M.S.G.L.G.C.P.S.S.A.A.P.R.P.N.A.P.S.T.S.A}$PEPTIDE1,PEPTIDE1,6:R3-22:R3$$$V2.0)	15 fold and 14.9 fold	43.5	69	34-69%	69	slightly more sensitive to NEP than CDNP	–	–	–	–	–	–	–	–	–
CC[C@H](C)[C@@H]1NC(=O)[C@H](CCCNC(=N)N)NC(=O)[C@H](CC(=O)O)NC(=O)[C@H](CC(C)C)NC(=O)[C@H](CCCCN)NC(=O)[C@H](CC(C)C)NC(=O)CNC(=O)[C@H](Cc2ccccc2)NC(=O)[C@@H](NC(=O)CNC(=O)[C@H](CCCCN)NC(=O)[C@H](CO)NC(=O)[C@H](CC(C)C)NC(=O)CN)CSSC[C@@H](C(=O)N2CCC[C@H]2C(=O)N[C@@H](CO)C(=O)N[C@@H](CO)C(=O)N[C@@H](C)C(=O)N[C@@H](CC(=O)O)C(=O)N2CCC[C@H]2C(=O)N[C@@H](CCCNC(=N)N)C(=O)N2CCC[C@H]2C(=O)N[C@@H](CC(N)=O)C(=O)N[C@@H](C)C(=O)N2CCC[C@H]2C(=O)N[C@@H](CO)C(=O)N[C@H](C(=O)N[C@@H](CO)C(=O)N[C@@H](C)C(=O)O)[C@@H](C)O)NC(=O)CNC(=O)[C@H](CC(C)C)NC(=O)CNC(=O)[C@H](CO)NC(=O)[C@H](CCSC)NC(=O)[C@H](CO)NC(=O)CNC1=O [CDNP-SAD] (HELM PEPTIDE1{G.L.S.K.G.C.F.G.L.K.L.D.R.I.G.S.M.S.G.L.G.C.P.S.S.A.D.P.R.P.N.A.P.S.T.S.A}$PEPTIDE1,PEPTIDE1,6:R3-22:R3$$$V2.0)	28 fold and 28.5 fold	83.2	27	–	27	comparable NEP sensitivity	–	–	–	–	–	–	–	–	–
GLSKGCFGLKLDRIGSMSGLGCGGGGSGGGGSGGGGDDDDDD (disulfide 6-22) [CNP-14AAlinker-D6 [C4]]	–	–	–	–	–	–	75	Yes	75	146	545	375-714	900 to 10000	2140	156
